Laboratory results: patent US12691101B2, “Compound and method for preventing or treating of respiratory diseases comprising the same as an active ingredient” (YONSEI UNIVERSITY, UNIVERSITY - INDUSTRY FOUNDATION (UIF), priority 2019, dated 2026)

Assays:
[1] = test system: NIH3T3 cells; experiment: Cell viability, MTS colorimetric analysis, NIH3T3; assay type: cell-based; conditions: 24 hours, up to 30 μM
Description: (A) Pendrin-mediated Cl^−/I^− exchange activity (mean±S.E., n=5). The indicated concentration of F56 was pretreated for 10 minutes. (B, C) Representative tracing of intracellular pH. The application of Cl^− free solution induced intracellular alkalization through pendrin-mediated Cl^−/HCO3^− and Cl^−/OH^− exchange activity. The indicated concentration of F56 was pretreated for 10 minutes. (D-F) The pendrin-mediated Cl^−/I^− exchange activity was measured in CHO-K1 cells expressing human pendrin. The indicated concentration of F56, PDSinh-A01 and PDSinh-C01 was pretreated for 10 minutes. (G) Summary of dose-response of F56, PDSinh-A01 and PDSinh-C01 (mean±S.E., n=3). (H, I) Effect of F56, PDSinh-A01 and PDSinh-C01 on the cell viability in NIH3T3 (H) and CHO-K1 (I) cells. The cells were treated with F56, PDSinh-A01 and PDSinh-C01 for 24 hours. The cell viability was measured by MTS colorimetric analysis (mean±S.E., n=3). NTC, non-transfected cells.
The cells were treated with F10 for 24 hours. The cell viability was determined by MTS colorimetric analysis (mean±S.E., n=3).

[2] = target: T1, human CFTR (Homo sapiens, UniProt P13569); experiment: CFTR chloride channel activity in FRT cells; assay type: cell-based
T1 construct: expressed in transfected cells; host or cells: FRT (Fischer rat thyroid) cells; for F10 also expressing mutant YFP
T1 sequence (P13569 whole entry): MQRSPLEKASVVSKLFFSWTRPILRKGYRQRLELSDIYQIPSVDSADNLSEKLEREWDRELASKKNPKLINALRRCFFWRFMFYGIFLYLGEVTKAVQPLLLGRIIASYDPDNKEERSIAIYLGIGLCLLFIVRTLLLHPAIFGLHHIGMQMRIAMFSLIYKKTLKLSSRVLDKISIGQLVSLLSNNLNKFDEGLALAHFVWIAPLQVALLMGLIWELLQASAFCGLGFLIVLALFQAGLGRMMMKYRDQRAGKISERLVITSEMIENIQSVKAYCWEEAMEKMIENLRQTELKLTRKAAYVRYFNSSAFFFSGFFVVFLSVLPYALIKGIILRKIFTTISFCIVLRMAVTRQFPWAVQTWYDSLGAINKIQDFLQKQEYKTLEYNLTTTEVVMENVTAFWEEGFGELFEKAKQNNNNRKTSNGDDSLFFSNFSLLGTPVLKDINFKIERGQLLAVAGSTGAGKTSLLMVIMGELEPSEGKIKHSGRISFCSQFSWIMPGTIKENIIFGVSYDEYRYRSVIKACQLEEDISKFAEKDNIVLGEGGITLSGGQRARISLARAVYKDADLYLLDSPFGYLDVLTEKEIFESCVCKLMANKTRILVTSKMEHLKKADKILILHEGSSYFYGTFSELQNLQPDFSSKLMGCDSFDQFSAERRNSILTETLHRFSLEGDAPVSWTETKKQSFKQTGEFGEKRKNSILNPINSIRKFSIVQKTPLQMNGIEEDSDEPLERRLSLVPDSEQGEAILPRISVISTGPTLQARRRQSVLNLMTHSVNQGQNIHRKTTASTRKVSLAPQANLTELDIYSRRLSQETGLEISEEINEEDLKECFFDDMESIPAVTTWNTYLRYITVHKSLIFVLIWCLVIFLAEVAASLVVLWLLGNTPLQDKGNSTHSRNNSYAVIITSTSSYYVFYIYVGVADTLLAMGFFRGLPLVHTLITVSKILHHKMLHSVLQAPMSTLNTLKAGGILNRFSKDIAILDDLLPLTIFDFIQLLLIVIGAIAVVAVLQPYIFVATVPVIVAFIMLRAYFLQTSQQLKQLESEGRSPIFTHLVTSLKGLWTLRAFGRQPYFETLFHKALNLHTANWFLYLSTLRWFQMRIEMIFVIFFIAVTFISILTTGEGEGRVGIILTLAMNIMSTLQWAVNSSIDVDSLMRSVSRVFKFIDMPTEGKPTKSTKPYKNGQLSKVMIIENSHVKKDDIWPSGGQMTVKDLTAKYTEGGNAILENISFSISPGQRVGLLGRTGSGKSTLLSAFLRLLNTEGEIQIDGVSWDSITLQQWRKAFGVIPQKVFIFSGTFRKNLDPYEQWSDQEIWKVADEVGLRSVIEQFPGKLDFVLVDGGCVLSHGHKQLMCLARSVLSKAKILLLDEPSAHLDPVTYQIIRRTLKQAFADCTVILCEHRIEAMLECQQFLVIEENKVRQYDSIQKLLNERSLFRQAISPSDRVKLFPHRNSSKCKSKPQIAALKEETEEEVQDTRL
Description: (A) The inhibition of mouse pendrin (mPDS)-mediated Cl^−/I^− exchange activity by F56 was measured in CHO-K1 cells (mean±S.E., n=5). The indicated concentration of F56 was pretreated for 10 minutes. (B) Summary of dose-response for inhibition of the human pendrin (hPDS)-mediated (closed circle, FIG. (a), C) and mPDS-mediated (open circle) Cl^−/I^− exchange activity. (C-F) Representative traces of intracellular pH in CHO-K1 cells expressing SLC26A3, SLC26A6, SLC26A7 and SLC26A9 were shown. The application of Cl^− free solution induced intracellular alkalization by Cl^−/HCO3^− exchange. The indicated concentration of F56 was pretreated for 10 minutes. (G) the effect of F56 (100 μM) on the CFTR chloride channel activity was measured in FRT cells expressing human CFTR. […] (H) The effect of F56 (100 μM) on the AN01 chloride channel activity was measured in FRT cells expressing human AN01. […] (I) The effect of F56 on the hERG (Kv11.1) potassium channel activity was measured in HEK293T cells expressing human Kv11.1 (mean±S.E., n=4). […] (J) The effect of F56 on the 5-HT2A channel activity was measured in FRT cells expressing human 5-HT2A (mean±S.E., n=4). […]
(A) The effect of F10 (30 μM) on the CFTR channel was measured in FRT cells expressing human CFTR and mutant YFP. […] (B) The effect of F10 (30 μM) on the AN01 channel activity was measured in FRT cells expressing human and mutant YFP. […]

effect on CFTR activity ([2]; 100 μM, FRT cells, forskolin-activated) | Compound | cytotoxicity in NIH3T3 cells [1] | effect on CFTR channel activity ([2]; 30 μM, FRT cells with mutant YFP)
 | CC(C)(C)c1ccc(C2=NC(=Cc3ccc[nH]3)C(=O)O2)cc1 [F10, 4-((1H-pyrrol-2-yl)methylene)-2-(4-(tert-butyl)phenyl)oxazol-5 (4H)-one] | did not show any cytotoxicity up to 30 μM | did not show any effect
not affected | CC(C)(C)c1ccc(C2=NC(=Cc3cccs3)C(=O)O2)cc1 [F56, 2-(4-(tert-butyl)phenyl)-4-(thiophen-2-ylmethylene)oxazol-5(4H)-one] | did not show cytotoxicity up to 30 μM | 
